Measurements reported in EPA's ToxValDB 9.5 (doi:10.2903/j.efsa.2015.4024).

System: Rattus norvegicus
[1] = subchronic, duration: 90 days, oral, diet
[2] = subchronic, duration: 90 days, oral, gavage, M/F, Crj:CD, clinical signs

Structure (SMILES): Cc1cc(SSc2cc(C)oc2C)c(C)o1 [Furan, 3,3'-dithiobis[2,5-dimethyl-]
- NOEL [1]: 0.45 mg/kg-day

Structure (SMILES): CCOC(=O)CCSCc1ccco1 [Ethyl 3-(furfurylthio)propionate]
- NOEL (subchronic, duration: 90 days): 17 mg/kg-day

Structure (SMILES): CC1OCCC1S (centres undefined) [Tetrahydro-2-methyl-3-furanthiol]
- NOAEL [2]: 5 mg/kg-day

Structure (SMILES): Cc1occc1SSc1ccoc1C [Bis(2-methyl-3-furyl)disulfide]
- NOEL [1]: 0.45 mg/kg-day

Structure (SMILES): CC1CC(S)C(C)O1 (centres undefined) [2,5-Dimethyltetrahydrofuran-3-thiol]
- NOAEL [2]: 5 mg/kg-day

Structure (SMILES): Cc1cc(SC(=O)CC(C)C)c(C)o1 [2,5-Dimethyl-3-thioisovalerylfuran]
- NOEL (subchronic, duration: 90 days): 0.73 mg/kg-day

Structure (SMILES): CSC(=O)c1ccco1 [2-Furancarbothioic acid, S-methyl ester]
- NOAEL (subchronic, duration: 90 days, oral): 6.63 mg/kg-day

Structure (SMILES): CC(=O)SC1=C(C)OCC1 [2-Methyl-3-thioacetoxy-4,5-dihydrofuran]
- NOEL (chronic, duration: 1 years, oral, diet): 8.3 mg/kg-day

Structure (SMILES): Cc1occc1SSSSc1ccoc1C [Bis(2-methyl-3-furyl) tetrasulfide]
- NOEL (subchronic, duration: 90 days): 0.56 mg/kg-day
